In EP3748362A1, “IN VITRO METHOD FOR DETECTING RENAL DISEASE” (Fundacion Instituto De Investigacion Sanitaria Fundacion …, priority 2019, dated 2020):

Columns and labels:
[1] = Renal function (serum BUN), folic acid-induced renal injury in mice; type: in vivo; conditions: folic acid 300 mg/kg model; paricalcitol 25 µg/kg/day i.p.
Method: All animal procedures were performed according to the guidelines of animal research in the European Community and with prior approval by the Ethics Committee of the Health Research of the IIS-Fundacion Jiménez Díaz. For in vivo studies, mice received a daily intraperitoneal injection of the VDRA Paricalcitol starting 48 hours prior to induction of kidney damage.
Folic acid nephropathy is a classical model of kidney tubulointerstitial injury and inflammation that has been reported in humans. Mice received a single intraperitoneal injection of folic acid (Sigma) 300 mg/kg in 0.3 mol/l sodium bicarbonate or vehicle, and were sacrificed 48 hours later. Two groups were studied; untreated or paricalcitol treated (25 µg/kg/day, i.p., Abbot), n=7-8 per group starting 48 hours before FA injection. The dose of paricalcitol was chosen based on dose-finding preliminary experiments.

CIAP1-TRAF3 complex = experiment: TRAF3 immunoprecipitation (ubiquitin-Lys-48, CIAP1) in TWEAK-stimulated HK2 cells; type: cell-based, Human; conditions: TWEAK 100 ng/ml, paricalcitol 15 umol/L
Method: Human kidney proximal tubule epithelial cells (HK2 cell line, ATCC CRL-2190) were grown in RPMI 1640 with 10% fetal bovine serum (FBS), 1% glutamine, 100 U/ml penicillin, 100 µg/ml streptomycin, 5 µg/ml insulin-transferrin-selenite and 36 ng/ml hydrocortisone in 5% CO2 at 37° C. When cells reached 60 to 70% confluence, they were serum-depleted for 24 hours before the experiment.
Cells were stimulated with 100ng/ml recombinant human soluble TWEAK (Millipore) or p-200 µg/ml cresyl-sulfate (Raymond Vanholder and Griet Glorieux, University of Gent, Belgium). Concentrations of TWEAK and p-cresyl-sulfate were based on previously published dose-response experiments (Poveda et al. 2014; Sanz et al. 2008). […] DMSO, used as a solvent in some cases, had no effect on cell viability or on gene expression levels.
(§1) Cells growing in tissue culture dish plates, were lysed in 300-500 µl Triton-NP-40 lysis buffer [50 mmol/L Tris-HCl pH 8, 150 mmol/L NaCl, 1 mmol/L phenylmethylsulphonylfluoride, 1% NP-40/IGEPAL, and a phosphatase-inhibitor cocktail (Set II, Calbiochem)], scraped off the dish and incubated 1 hour to 4°C with shaking. Cell lysates were precleared by incubating with 10 µl protein A-agarose bead slurries (0.5 mL agarose/2 mL phosphate-buffered saline) for 30 min at 4°C, and then centrifuged three times for 5 minutes at 2500 rpm, to wash supernatants. […]

NF-κB2 = experiment: Non-canonical NF-κB2 activation in TWEAK-stimulated PBMCs from healthy donors; type: cell-based, Human; conditions: 12 µM paricalcitol 24 hours, TWEAK 100 ng/ml, p52 levels
CIAP1-TRAF3 complexes = experiment: TRAF3 immunoprecipitation (ubiquitin-Lys-48, CIAP1) in PBMCs from ESRD patients; type: in vivo, human
Method: (§2) Intracellular protein and mRNA levels were measured in PBMCs from ESRD patients on hemodialysis. Inclusion criteria were as follows: age >45 years; male sex; informed consent; and absence of active inflammatory, infectious, or malignant diseases at the initiation or during the study. This study was approved by the IIS-Fundación Jiménez Diaz Ethics Committee. Patients were enrolled after providing written informed consent. PBMCs were separated from whole blood samples (30 ml into EDTA tubes) by a density gradient centrifugation method using Ficoll density gradient centrifugation. In total, 50x10^6 of PBMCs were obtained from 30 ml of whole blood and 6x10^6 PBMCs were used to isolate protein, RNA and nuclear/cytosolic protein levels using the NE-PER Reagent (Pierce) following the manufacturer's instructions.
as §1

NF-κB 1 pathway = experiment: Canonical NF-κB1 activation in TWEAK-stimulated PBMCs from healthy donors; type: cell-based, Human; conditions: 12 µM paricalcitol, TWEAK 100 ng/ml, phosphorylated p65
RelB or p52/NF-κB2 = experiment: p52 and RelB DNA binding activity in PBMCs from ESRD patients on hemodialysis; type: in vivo, human; conditions: PBMCs from paricalcitol-treated ESRD patients; RelB or p52 DNA binding activities
Method: as §2
Nuclear and cytoplasmic fractions were separated from renal tissues using the NE-PER Reagent (Pierce) following the manufacturer's instructions. In renal nuclear extracts, NF-κB2 and RelB DNA binding activity was measured by its binding to an oligonucleotide containing the NF-κB consensus site using a TransAM NF-κB Family kit (Active Motif) with an antibody that only recognizes active NF-κB2 p52 and RelB.

## C[C@H](/C=C/[C@H](C)C(C)(C)O)[C@H]1CC[C@H]2/C(=C/C=C3C[C@@H](O)C[C@H](O)C3)CCC[C@]12C [paricalcitol]
[1]
  renal function assessed by serum BUN levels: restored changes in renal function
CIAP1-TRAF3 complex
  TRAF3 ubiquitination and CIAP1-TRAF3 complex formation: prevented
NF-κB2
  TWEAK-induced NF-κB2 activation: inhibited
CIAP1-TRAF3 complexes; PBMCs of paricalcitol-treated ESRD patients, TRAF3 immunoprecipitation
  TRAF3 ubiquitination and CIAP1-TRAF3 interaction: significantly lowering to values in the range of healthy controls
CIAP1-TRAF3 complexes; whole protein extracts of PBMCs, paricalcitol-treated ESRD patients
  CIAP-1 levels: close to control values
NF-κB 1 pathway
  canonical NF-κB 1 pathway: without modulating
RelB or p52/NF-κB2
  NF-κB2 pathway activation: inhibited
